pIC50: −log10 of the molar value. Active and inactive are the calls of the source. The rule behind the calls is not given here.
Columns and labels:
Plasmodium falciparum [1] = assay: microbe, parasite or virus in culture; conditions: K1, 72 h
[2] = Clearance in rat hepatocytes assessed per 1E6 cells; format: ADME, cell-based, Hepatocyte; conditions: read-out: CLH
[3] = biological target: Voltage-gated inwardly rectifying potassium channel KCNH2 (Homo sapiens, UniProt Q12809); assay: Inhibition of human ERG
Chain of Voltage-gated inwardly rectifying potassium channel KCNH2 (Q12809 whole entry): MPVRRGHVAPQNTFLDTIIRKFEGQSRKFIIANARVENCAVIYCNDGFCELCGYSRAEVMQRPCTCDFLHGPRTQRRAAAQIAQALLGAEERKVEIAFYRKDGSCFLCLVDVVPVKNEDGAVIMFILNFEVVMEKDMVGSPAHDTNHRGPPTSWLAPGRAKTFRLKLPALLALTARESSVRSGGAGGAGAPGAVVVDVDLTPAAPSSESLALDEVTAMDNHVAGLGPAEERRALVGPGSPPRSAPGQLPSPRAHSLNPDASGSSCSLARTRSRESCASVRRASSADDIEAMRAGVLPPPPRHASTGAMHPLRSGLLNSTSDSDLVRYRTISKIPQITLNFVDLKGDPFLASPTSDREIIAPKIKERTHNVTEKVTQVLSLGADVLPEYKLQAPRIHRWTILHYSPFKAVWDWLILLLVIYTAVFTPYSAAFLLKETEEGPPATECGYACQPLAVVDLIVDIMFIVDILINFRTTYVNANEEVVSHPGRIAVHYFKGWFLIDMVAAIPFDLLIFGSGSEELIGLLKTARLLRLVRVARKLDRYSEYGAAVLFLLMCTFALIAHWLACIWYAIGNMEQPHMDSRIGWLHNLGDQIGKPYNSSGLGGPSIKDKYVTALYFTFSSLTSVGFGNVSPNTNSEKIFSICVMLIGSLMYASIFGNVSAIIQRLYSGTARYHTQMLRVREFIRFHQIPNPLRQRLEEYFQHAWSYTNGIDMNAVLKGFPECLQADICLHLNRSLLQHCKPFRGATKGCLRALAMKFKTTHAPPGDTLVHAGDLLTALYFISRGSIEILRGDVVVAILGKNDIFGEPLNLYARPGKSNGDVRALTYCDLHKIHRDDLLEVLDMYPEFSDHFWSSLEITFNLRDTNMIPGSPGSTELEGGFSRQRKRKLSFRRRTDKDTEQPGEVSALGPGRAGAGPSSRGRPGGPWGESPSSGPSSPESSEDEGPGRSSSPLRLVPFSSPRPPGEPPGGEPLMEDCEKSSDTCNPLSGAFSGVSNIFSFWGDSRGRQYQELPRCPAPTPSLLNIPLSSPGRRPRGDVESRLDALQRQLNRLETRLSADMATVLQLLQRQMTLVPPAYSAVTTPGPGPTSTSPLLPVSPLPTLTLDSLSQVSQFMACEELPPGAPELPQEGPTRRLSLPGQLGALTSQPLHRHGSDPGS

[4] = Selectivity index, ratio of IC50 for human A549 cells to IC50 for Plasmodium falciparum; format: toxicity, cell-based; conditions: read-out: Ratio IC50
Plasmodium falciparum [5] = assay: microbe, parasite or virus in culture; conditions: SB1, 72 h
Description: Antiplasmodial activity against Plasmodium falciparum SB1 after 72 hrs by SYBR I method

Plasmodium falciparum [6] = assay: microbe, parasite or virus in culture; conditions: Dd2, 72 h
Description: Antiplasmodial activity against Plasmodium falciparum Dd2 after 72 hrs by SYBR I method

Plasmodium falciparum [7] = assay: Antiplasmodial activity against Plasmodium falciparum Dd2 harboring HSP90 mutant; format: functional, organism-based
Plasmodium falciparum [8] = assay: Antiplasmodial activity against Plasmodium falciparum Dd2 harboring CYTb-Qi mutant; format: functional, organism-based
Plasmodium falciparum [9] = assay: microbe, parasite or virus in culture; conditions: NF54, 72 h
[10] = Clearance in human liver microsomes; format: ADME; conditions: read-out: CLH
Plasmodium falciparum [11] = assay: Antiplasmodial activity against Plasmodium falciparum Dd2; format: functional, organism-based
Plasmodium falciparum [12] = assay: Antiplasmodial activity against chloroquine and pyrimethamine-sensitive Plasmodium falciparum 3D7A assessed as parasite reduction ratio at 10 times IC50 after 48 hrs; format: functional, organism-based
Plasmodium falciparum [13] = assay: microbe, parasite or virus in culture; conditions: W2, 72 h
Description: Antiplasmodial activity against Plasmodium falciparum W2 after 72 hrs by SYBR I method

Plasmodium falciparum [14] = assay: Antiplasmodial activity against Plasmodium falciparum Dd2 harboring CRT mutant; format: functional, organism-based
Plasmodium falciparum [15] = assay: microbe, parasite or virus in culture; conditions: 7G8, 72 h
Description: Antiplasmodial activity against Plasmodium falciparum 7G8 after 72 hrs by SYBR I method

Plasmodium falciparum [16] = assay: Antiplasmodial activity against Plasmodium falciparum Dd2 harboring DHODH mutant; format: functional, organism-based
[17] = Clearance in mouse liver microsomes; format: ADME; conditions: read-out: CLH
Plasmodium berghei = assay: Antiplasmodial activity against Plasmodium berghei ANKA expressing GFP infected in BALB/c mouse assessed as host survival days at 30 mg/kg, po qd for 4 days; format: functional

SMILES	pIC50 (Plasmodium falciparum [1])	hepatocyte CLint [2] [µL/min/1e6 cells]	pIC50 [3]	selectivity ratio [4]	pIC50 (Plasmodium falciparum [5])	pIC50 (Plasmodium falciparum [6])	pIC50 (Plasmodium falciparum [7])	pIC50 (Plasmodium falciparum [8])	pIC50 (Plasmodium falciparum [9])	microsomal CLint [10] [µL/min/mg]	pIC50 (Plasmodium falciparum [11])	Activity (Plasmodium falciparum [12])	pIC50 (Plasmodium falciparum [13])	pIC50 (Plasmodium falciparum [14])	pIC50 (Plasmodium falciparum [15])	pIC50 (Plasmodium falciparum [16])	microsomal CLint [17] [µL/min/mg]	Survival (Plasmodium berghei) [days]
Nc1nc2ccc(OCC(F)(F)F)nc2n1CC(O)c1ccc(C(F)(F)F)cc1Cl (racemic)	8.00	36	< 4.48	232	6.75	6.87	7.47	7.93	7.37	45	7.61	Active	7.21	7.78	7.92	7.71	21	
CCN(CC)CCCC(C)Nc1ccnc2cc(Cl)ccc12 (stereo not drawn) [CHLOROQUINE]																		27
